Experimental data from article PMC12138161, “Structure–activity analysis of imino‐pyrimidinone‐fused pyrrolidines aids the development of dual plasmepsin V and plasmepsin X inhibitors” (The Febs Journal, 2025).
Values joined by “and” are separate entries in the source; they are usually repeats but may differ in a detail not shown here. Identical values can stand only once. Like-named read-outs stand apart in the source and are kept apart here.

Tests used:
[1] = target: T1, recombinant Plasmodium vivax PMV (Plasmodium vivax, UniProt A5K302); test: Plasmepsin V fluorogenic substrate cleavage assay; format: biochemical; conditions: for IC50: recombinant P. vivax PMV, average of three independent experiments, read-out: PMV IC50 (SD)
T1 construct: PvPMV (residues R35–R476) was prepared similarly; gp67 signal peptide (N); TEV protease cleavage site + FLAG tag (C); made in house; host or cells: Sf21 insect cells
Source text: To uncover nonpeptidomimetic drug‐like inhibitors of the aspartic protease PvPMV, we screened a library of 1298 compounds that were known to inhibit human aspartyl proteases. These compounds were selected by chemoinformatic structural diversity from a larger library of compounds that targeted human aspartyl proteases and has been used previously to identify hit compounds that inhibited P. falciparum growth. These hit compounds belonged to a single chemical class and were used to develop a lead compound WM382 that is a dual selective inhibitor of PMIX and PMX from P. falciparum and P. vivax. The screen utilized a FRET‐based assay with PvPMV and a fluorogenic EDANS‐DACBYL labeled peptide with the P. falciparum knob‐associated histidine‐rich protein (KAHRP) PEXEL motif amino acid sequence.
(§1) These fluorogenic assays follow protocols previously described. Compound potency was assessed with 10 point, threefold dilution series starting at 100 μM in duplicate per experiment and repeated in three independent experiments. Data were normalized to percent inhibition relative to 1% DMSO (high control) and either 1 μM WEHI‐600 for PMV and 1 μM WM382 for PMIX/PMX (low controls). IC50 values (relative inflection of dose–response curve) were calculated using a nonlinear regression four‐parameter fit analysis in DOTMATICS 5.3 (Dotmatics, Boston, MA, USA) and SPOTFIRE 7.11.1 (Goteborg, Sweden) software. The equation used was sigmoidal dose–response (variable slope), Y = bottom + (top − bottom)/(1 + 10 ((logIC50 − X) × Hill Slope)). Reported IC50 values were calculated based on the averages of three independent dataset. Assay robustness and data quality was assessed by Z′ > 0.5 (Z′ = 1 − (3 × (SD high + SD low)/(mean high − mean low))) and activity reproducibility of reference compound. WEHI‐600 (PMV) or WM382 (PMIX/PMX) were included as reference compounds in every experiment to monitor the assay performance. Any drift in activity greater than threefold from the average acceptable range and the experiment was rejected and repeated.

[2] = target: T2, Plasmodium falciparum PMIX (Plasmodium falciparum, UniProt Q8ILG2); test: Plasmepsin IX fluorogenic substrate cleavage assay; format: biochemical; conditions: P. falciparum PMIX; average of three independent experiments; read-out: PMIX IC50 (SD)
T2 sequence (Q8ILG2 1-627): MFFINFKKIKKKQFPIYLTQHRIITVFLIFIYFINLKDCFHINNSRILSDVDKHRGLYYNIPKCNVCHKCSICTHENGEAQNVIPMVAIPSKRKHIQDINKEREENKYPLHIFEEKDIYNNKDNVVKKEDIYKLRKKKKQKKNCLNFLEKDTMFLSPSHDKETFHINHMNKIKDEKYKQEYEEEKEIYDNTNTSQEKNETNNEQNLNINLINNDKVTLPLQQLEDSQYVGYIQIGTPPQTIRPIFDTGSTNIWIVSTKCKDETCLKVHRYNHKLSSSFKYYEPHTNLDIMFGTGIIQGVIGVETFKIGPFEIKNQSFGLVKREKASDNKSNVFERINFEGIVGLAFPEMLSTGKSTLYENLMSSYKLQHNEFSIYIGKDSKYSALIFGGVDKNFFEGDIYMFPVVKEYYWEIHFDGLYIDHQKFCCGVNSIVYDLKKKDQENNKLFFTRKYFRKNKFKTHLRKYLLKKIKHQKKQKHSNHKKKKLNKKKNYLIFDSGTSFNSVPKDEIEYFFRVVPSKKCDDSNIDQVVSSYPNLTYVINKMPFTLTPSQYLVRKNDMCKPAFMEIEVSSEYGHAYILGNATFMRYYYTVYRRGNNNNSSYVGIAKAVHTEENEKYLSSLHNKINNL
Procedure: as §1

P. falciparum PMX = P. falciparum PMX (Plasmodium falciparum, UniProt Q8IAS0); test: Plasmepsin X fluorogenic substrate cleavage assay; format: biochemical; conditions: for IC50: P. falciparum PMX, average of three independent experiments, read-out: PMX IC50 (SD)
Procedure: as §1

[3] = tested on: P. falciparum 3D7 asexual parasites; test: P. falciparum growth inhibition assay (LDH activity, 72 h); format: cell-based, Plasmodium falciparum; conditions: for EC50: Plasmodium falciparum, 3D7 asexual parasites, 72 h exposure, LDH activity, three independent experiments, read-out: Pf 3D7 EC50 (SD)
Procedure: The ability of compounds to block growth of blood stage P. falciparum parasites was determined using a growth inhibition assay (GIA) as described. Compound potency was assessed with 10 point, threefold dilution series starting at 10 μM in duplicate per experiment and repeated in three independent experiments. Data were normalized to percent viability relative to 0.1% DMSO (high growth control) and 2.5 μM chloroquine (low growth control). EC50 values (relative inflection of dose–response curve) were calculated using a nonlinear regression four‐parameter fit analysis in DOTMATICS 5.3 and SPOTFIRE 7.11.1 software. The equation used was sigmoidal dose–response (variable slope), Y = bottom + (top − bottom)/(1 + 10 ((logEC50 − X) × Hill Slope)). Reported EC50 values were calculated on the average of three independent dataset. Assay robustness and data quality was assessed by Z′ > 0.5 (Z′ = 1 − (3 × (SD high + SD low)/(mean high − mean low))) and activity reproducibility of reference compound WM382, which was included in every experiment. Any drift in WM382 activity greater than threefold from the average acceptable range and the experiment was rejected and repeated.

PMV = conditions: cited from earlier work
PMIX = conditions: cited from earlier work
[4] = tested on: 3D7 strain of Plasmodium falciparum; conditions: blood stage growth, read-out: Pf 3D7 EC50; cited from earlier work
PMX = conditions: cited from earlier work

P. falciparum PMX, sequence (Q8IAS0 222-573): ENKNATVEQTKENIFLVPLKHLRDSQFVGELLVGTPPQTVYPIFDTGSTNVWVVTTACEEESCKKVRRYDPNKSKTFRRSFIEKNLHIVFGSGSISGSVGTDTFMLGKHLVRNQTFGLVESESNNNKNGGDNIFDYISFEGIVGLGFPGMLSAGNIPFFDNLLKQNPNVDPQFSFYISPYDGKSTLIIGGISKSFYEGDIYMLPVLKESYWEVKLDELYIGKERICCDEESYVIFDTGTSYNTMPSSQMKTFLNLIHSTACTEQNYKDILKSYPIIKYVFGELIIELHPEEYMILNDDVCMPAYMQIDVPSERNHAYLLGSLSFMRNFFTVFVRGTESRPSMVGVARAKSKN
T1 sequence (A5K302 35-476): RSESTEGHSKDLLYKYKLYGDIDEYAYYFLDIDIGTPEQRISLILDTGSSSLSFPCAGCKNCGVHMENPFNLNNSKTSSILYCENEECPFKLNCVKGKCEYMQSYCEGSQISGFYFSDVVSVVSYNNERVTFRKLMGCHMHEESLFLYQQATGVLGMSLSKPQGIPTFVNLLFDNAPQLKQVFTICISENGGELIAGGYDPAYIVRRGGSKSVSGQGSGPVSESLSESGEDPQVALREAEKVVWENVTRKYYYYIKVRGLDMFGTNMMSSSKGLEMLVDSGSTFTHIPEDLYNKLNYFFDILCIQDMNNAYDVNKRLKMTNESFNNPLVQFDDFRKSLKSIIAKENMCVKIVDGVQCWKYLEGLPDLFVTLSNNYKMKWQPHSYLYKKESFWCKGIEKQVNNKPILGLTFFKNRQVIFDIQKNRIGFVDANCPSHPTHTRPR

Row | SMILES | IC50 [1] [nM] | IC50 [2] | IC50 (P. falciparum PMX) | EC50 [3] [nM] | other results
1 | CN1C(=N)NC2(c3cc(F)ccc3F)CN(c3n[nH]cc3-c3ccccc3)CC2C1=O (centres unmarked) [R/S‐WM447 (28), 7a‐(2,5‐difluorophenyl)‐2‐imino‐3‐methyl‐6‐(4‐phenyl‐1H‐pyrazol‐3‐yl)hexahydro‐1H‐pyrrolo[3,4‐d]pyrimidin‐4(4aH)‐one] | 683 | 2170 nM | 64 nM | 1530 | –
2 | CN1C(=N)NC2(c3cc(F)ccc3F)CN(c3ncsc3-c3ccccc3)CC2C1=O (centres unmarked) [Compound 27] | 440 | 990 nM | 473 nM | > 10000 | –
3 | CCC1(CC)CC(=O)N([C@@H]2CCOc3ccc(C(=O)N[C@H]4CC(C)(C)Oc5ccccc54)cc32)C(=N)N1 [WM382 (5)] | – | – | – | – | IC50 (PMV): > 1000 nM; IC50 (PMIX): 0.4 nM; EC50 [4]: 0.6 nM; IC50 (PMX): 0.04 nM
4 | CN1C(=N)NC2(c3cc(F)ccc3F)CN(c3ncccc3-c3ccc(Cl)s3)CC2C1=O (centres unmarked) [Compound 26] | 610 | – | 70 nM | 2500 | –
5 | CC(C)C[C@H](NC(=O)[C@@H](NC(=O)[C@H](CCONC(=N)N)NC(=O)OCc1ccccc1)C(C)C)[C@@H](O)CC(=O)NCCc1ccccc1 [WEHI-842 (1)] | – | – | – | – | IC50 (PMV): 19 nM; IC50 (PMV; stated in text with reference to Fig. 1): < 20 nM; IC50 (PMIX): > 50000 nM; EC50 [4]: 430 nM; IC50 (PMX): 1700 nM
6 | CN1C(=N)NC2(c3cc(F)ccc3F)CN(c3ncccc3-c3ccc(F)cc3Cl)CC2C1=O (centres unmarked) [Compound 21] | 967 | 3230 nM | 990 nM | > 10000 | –
7 | CN1C(=N)NC2(c3cc(F)ccc3F)CN(c3ncccc3-c3ccccc3C(F)(F)F)CC2C1=O (centres unmarked) [Compound 10] | 3450 | 3970 nM | 1280 nM | > 10000 | –
8 | CN1C(=N)NC2(c3cc(F)ccc3F)CN(c3ncccc3-c3ccc(Cl)cc3Cl)CC2C1=O (centres unmarked) [Compound 17] | 517 | 360 nM | 1070 nM | > 10000 | –
9 | CN1C(=N)NC2(c3cc(F)ccc3F)CN(c3ncccc3-c3ccc(Cl)cc3C(F)(F)F)CC2C1=O (centres unmarked) [Compound 18] | > 3700 | 1080 nM | 483 nM | > 10000 | –
10 | Cc1c(NC(=O)c2cccc(C#N)c2)cccc1[C@]1(C)CC(=O)N([C@H]2CCO[C@@H](C)C2)C(=N)N1 [UCB7362 (4)] | – | – | – | – | IC50 (PMIX): 142 nM; EC50 [4]: 10 nM; IC50 (PMX): 7 nM
11 | CN1C(=N)NC2(c3cc(F)ccc3F)CN(c3ncccc3-c3ccc(Cl)cc3F)CC2C1=O (centres unmarked) [Compound 16] | 780 | 417 nM | 1330 nM | > 10000 | –
12 | Cc1ccc(-c2cccnc2N2CC3C(=O)N(C)C(=N)NC3(c3cc(F)ccc3F)C2)c(Cl)c1 (centres unmarked) [Compound 22] | 690 | 1630 nM | 420 nM | > 10000 | –
13 | CN1C(=N)NC2(c3cc(F)ccc3F)CN(c3ncccc3-c3ccccc3Cl)CC2C1=O (centres unmarked) [R/S‐WM36 (8)] | 807 | 4870 nM | 1100 nM | > 10000 | inhibition of P. falciparum asexual parasite replication / antimalarial activity (in words) ([3]; blood stage): did not inhibit
14 | CN1C(=N)NC2(c3cc(F)ccc3F)CN(c3nn(C)cc3-c3ccccc3)CC2C1=O (centres unmarked) [Compound 29] | 1050 | 10400 nM | 3470 nM | > 10000 | –
15 | CN1C(=N)NC2(c3cc(F)ccc3F)CN(c3ncccc3-c3cccs3)CC2C1=O (centres unmarked) [Compound 24] | 1230 | 1200 nM | 67 nM | 1770 | –
16 | CN1C(=N)NC2(c3cc(F)ccc3F)CN(c3ncccc3-c3sccc3Cl)CC2C1=O (centres unmarked) [R/S‐WM396 (25)] | 1110 | 350 nM | 9 nM | 200 | more potent against PMX (P. falciparum PMX; than the unsubstituted comparator analog 24): 8 ×

Second part, led by results:

Row | IC50 [1] [nM] | IC50 [2] | IC50 (P. falciparum PMX) | SMILES | EC50 [3] [nM] | other results
17 | > 3700 | 434 nM | 187 nM | CN1C(=N)NC2(c3cc(F)ccc3F)CN(c3ncccc3-c3ccc(Cl)c(Cl)c3)CC2C1=O (centres unmarked) [Compound 19] | > 10000 | –
18 | 1500 | 390 to 1170 nM and 1170 nM | 390 to 1170 nM and 473 nM | COc1cccc(-c2cccnc2N2CC3C(=O)N(C)C(=N)NC3(c3cc(F)ccc3F)C2)c1 (centres unmarked) [Compound 13] | > 10000 | –
19 | 357 | 1080 nM | 343 nM | CN1C(=N)NC2(c3cc(F)ccc3F)CN(c3ncccc3-c3ccc(Cl)cc3)CC2C1=O (centres unmarked) [R/S‐WM48 (14), 6‐(3‐(4‐chlorophenyl)pyridin‐2‐yl)‐7a‐(2,5‐difluorophenyl)‐2‐imino‐3‐methylhexahydro‐1H‐pyrrolo[3,4‐d]pyrimidin‐4(4aH)‐one] | > 10000 | –
20 | 3170 | 1630 nM | 420 nM | COc1ccc(-c2cccnc2N2CC3C(=O)N(C)C(=N)NC3(c3cc(F)ccc3F)C2)c(Cl)c1 (centres unmarked) [Compound 23] | > 10000 | –
21 | 1010 | 1150 nM | 440 nM | CN1C(=N)NC2(c3cc(F)ccc3F)CN(c3ncccc3-c3ccc(Cl)c(F)c3)CC2C1=O (centres unmarked) [Compound 20] | > 10000 | –
22 | 303 | > 10000 nM | 7500 nM | COc1ccccc1-c1cccnc1N1CC2C(=O)N(C)C(=N)NC2(c2cc(F)ccc2F)C1 (centres unmarked) [Compound 11] | > 10000 | improvement of PMV inhibition ([1]; compared with WM36 (8)): 2.5 fold
23 | 3600 | 2000 nM | 473 nM | COc1ccc(-c2cccnc2N2CC3C(=O)N(C)C(=N)NC3(c3cc(F)ccc3F)C2)cc1 (centres unmarked) [Compound 15] | > 10000 | –
24 | 610 | 5500 nM | 2070 nM | Cc1ccccc1-c1cccnc1N1CC2C(=O)N(C)C(=N)NC2(c2cc(F)ccc2F)C1 (centres unmarked) [Compound 9] | > 10000 | –
25 | 1020 | 4530 nM | 1330 nM | CN1C(=N)NC2(c3cc(F)ccc3F)CN(c3ncccc3-c3ccccc3F)CC2C1=O (centres unmarked) [Compound 7] | > 10000 | –
26 | 440 | 3000 nM | 1070 nM | CN1C(=N)NC2(c3cc(F)ccc3F)CN(c3ncccc3-c3ccccc3)CC2C1=O (centres unmarked) [Compound 6] | > 10000 | –
27 | > 3700 | 390 to 1170 nM and 560 nM | 390 to 1170 nM and 390 nM | CN1C(=N)NC2(c3cc(F)ccc3F)CN(c3ncccc3-c3cccc(Cl)c3)CC2C1=O (centres unmarked) [Compound 12] | > 10000 | –
